Test results taken from patent US11185554B2 (priority 2016, dated 2021).

How the values were obtained:
free radicals (ROS/RNS) = system: free radicals (ROS/RNS); set-up: species or system C57BL/6J mice; conditions: mouse, in vivo
influenza = conditions: mouse, in vivo; cited from earlier work
[1] = system: cytokines, chemokines in the peripheral blood; set-up: species or system C57BL/6J mice; conditions: mouse, in vivo
[2] = system: neutrophils and T cells in the peripheral blood; set-up: species or system C57BL/6J mice; conditions: mouse, in vivo
ebola virus = system: ebola virus; set-up: species or system C57BL/6J mice; conditions: mouse, in vivo
EBOV = system: EBOV; set-up: species or system C57BL/6J mice; conditions: mouse, in vivo

Compound: CCCCCC/C=C\CCCCCCCCCC(=O)N[C@H]1[C@H](OC[C@H]2O[C@H](OP(=O)(O)O)[C@H](NC(=O)CC(=O)CCCCCCCCCCC)[C@@H](OCCCCCCCCCC)[C@@H]2O)O[C@H](COC)[C@@H](OP(=O)(O)O)[C@@H]1OCC[C@@H](CCCCCCC)OC [eritoran, α-D-Glucopyranose, 3-O-decyl-2-deoxy-6-O-[2-deoxy-3-O-[(3R)-3-methoxydecyl)-6-O-methyl-2-[[(-11Z)-1-oxo-11-octadecenyl)amino]-4-O-phosphono-3-D-glucopyranosyl]-2-[(1,3-dioxotetradecyl)amino]-1-(dihydrogen phosphate)]
- reduction of free radicals (ROS/RNS) (free radicals (ROS/RNS)): 23%
- protection from lethal influenza challenge (influenza): protected
- decrease of serum levels of leukemia inhibitory factor (LIF) [1]: 10.3 fold
- increase in the production of KC [1]: 10.0 fold
- increase of levels of G-CSF [1]: 7.0 fold
- increase of levels of M-CSF [1]: 58%
- reduction of serum IL-7 levels [1]: 41%
- serum IL-6 level [1]: reduced
- serum IL-9 level [1]: reduced
- serum IL-10 level [1]: reduced
- serum IL-13 level [1]: reduced
- serum MIG level [1]: significantly decreased
- serum MIP-1α level [1]: significantly decreased
- serum MIP-1β level [1]: significantly decreased
- serum MIP-2 level [1]: significantly decreased
- serum RANTES level [1]: significantly decreased
- serum TNFα level [1]: reduced
- serum IP-10 level ([1]; ip): significantly decreased
- B-cells, NK-cells and monocytes populations [2]: no effect
- absolute count of CD3+, CD3+CD4+ and CD3+CD8+ T cells [2]: further reduced
- expansion of the neutrophil population (absolute counts) [2]: blocked expansion
- granulocytes, absolute count [2]: 2,786 cells/μl
- increase of percentages of CD4+ T cells positive for IL-4 [2]: 3.8 fold
- increase of percentages of CD4 T cells positive for CD69 [2]: 2.8 fold
- levels of IFNγ-secreting CD4+ T cells [2]: dramatically reduced
- levels of IFNγ-secreting CD8+ T cells [2]: dramatically reduced
- levels of IL-17A-secreting CD4+ T cells [2]: dramatically reduced
- percentages of CD11b+Ly6G/Ly6C+ neutrophils in gated granulocytes, placebo versus eritoran [2]: no difference
- percentages of neutrophils expressing activation marker CD64 [2]: significantly increased
- percentages of neutrophils expressing activation marker CD69 [2]: significantly increased
- ratio of CD11b+Ly6G/Ly6C+ neutrophils to CD3+ T-lymphocytes [2]: 11.05
- ratio of CD11b+Ly6G/Ly6C+ neutrophils to total lymphocytes [2]: 2.15
- protection against ebola virus challenge (ebola virus): does not protect
- reduction of viremia versus placebo (EBOV): two-logs
- viremia (quantitative RT-PCR) (EBOV): 10^5 genome equivalents per mL
